Assay results published in patent US20190374563A1, “TREATMENT OF KLEBSIELLA PNEUMONIAE INFECTIONS WITH ANTIBACTERIAL AMINOGLYCOSIDE COMPOUNDS” (Achaogen, Inc., priority 2009, published 2019).
Values after ≈ are worked out from the molar mass of the structure shown.

How the values were obtained:
[1] = test system: E. coli ATCC 25922 (AECO001); experiment: MIC assay, CLSI broth microdilution; type: cell-based; settings: Escherichia coli, ATCC25922, read-out: MIC AECO001
Procedure: (§1) Minimum inhibitory concentrations (MIC) were determined by reference Clinical and Laboratory Standards Institute (CLSI) broth microdilution methods per M7-A7 [2006]. Quality control ranges utilizing E. coli ATCC 25922, P. aeruginosa ATCC 27853 and S. aureus ATCC 29213, and interpretive criteria for comparator agents were as published in CLSI M100-S17 [2007]. Briefly, serial two-fold dilutions of the test compounds were prepared at 2× concentration in Mueller Hinton Broth. The compound dilutions were mixed in 96-well assay plates in a 1:1 ratio with bacterial inoculum. The inoculum was prepared by suspension of a colony from an agar plate that was prepared the previous day. Bacteria were suspended in sterile saline and added to each assay plate to obtain a final concentration of 5×10^5 CFU/mL. The plates were incubated at 35° C. for 20 hours in ambient air.

[2] = test system: P. aeruginosa ATCC 27853 (APAE001); experiment: MIC assay, CLSI broth microdilution; type: cell-based; settings: Pseudomonas aeruginosa, ATCC27853, read-out: MIC APAE001
Procedure: as §1

SMILES	MIC [1]	MIC [2]
CN[C@@H]1[C@@H](O)[C@@H](O[C@@H]2[C@@H](O)[C@H](O[C@H]3OC(CN)=CC[C@H]3NCC(O)CO)[C@@H](N)C[C@H]2NC(=O)[C@@H](O)CCN)OC[C@]1(C)O (stereo partly drawn) [Example 100, 2′-(2-Hydroxy-propanol)-1-(4-amino-2(S)-hydroxy-butyryl)-sisomicin]	1 to 16 µg/mL (≈ 1.61 to 25.7 µM)	> 16 µg/mL
CN[C@@H]1[C@@H](O)[C@@H](O[C@@H]2[C@@H](O)[C@H](O[C@H]3OC(CNC[C@H]4C[C@H](N)C4)=CC[C@H]3N)[C@@H](N)C[C@H]2NC(=O)[C@@H](O)CCN)OC[C@]1(C)O [Example 33, 6′-(Methyl-trans-3-amino-cyclobutyl)-1-(4-amino-2(S)-hydroxy-butyryl)-sisomicin]	< 1 µg/mL	1 to 16 µg/mL (≈ 1.58 to 25.3 µM)
CN[C@@H]1[C@@H](O)[C@@H](O[C@@H]2[C@@H](O)[C@H](O[C@H]3OC(CNCC(O)CCN)=CC[C@H]3N)[C@@H](N)C[C@H]2NC(=O)[C@@H](O)CN)OC[C@]1(C)O (stereo partly drawn) [Example 68, 6′-(2-Hydroxy-4-amino-butyl)-1-(3-amino-2(S)-hydroxy-propionyl)-sisomicin]	1 to 16 µg/mL (≈ 1.61 to 25.7 µM)	1 to 16 µg/mL (≈ 1.61 to 25.7 µM)
CN[C@@H]1[C@@H](O)[C@@H](O[C@@H]2[C@@H](O)[C@H](O[C@H]3OC(CNCC(O)CO)=CC[C@H]3N)[C@@H](N)C[C@H]2NC(=O)[C@@H](O)CCN)OC[C@]1(C)O (stereo partly drawn) [Example 19, 6′-(2-Hydroxy-propanol)-1-(4-amino-2(S)-hydroxy-butyryl)-sisomicin]	< 1 µg/mL	1 to 16 µg/mL (≈ 1.61 to 25.7 µM)
CN[C@@H]1[C@@H](O)[C@@H](O[C@@H]2[C@@H](O)[C@H](O[C@H]3OC(CNCCO)=CC[C@H]3N)[C@@H](N)C[C@H]2NC(=O)[C@H](O)CCN)OC[C@]1(C)O [Example 2, 6′-(2-Hydroxy-ethyl)-1-(4-amino-2(R)-hydroxy-butyryl)-sisomicin]	1 to 16 µg/mL (≈ 1.69 to 27 µM)	1 to 16 µg/mL (≈ 1.69 to 27 µM)
CN[C@@H]1[C@@H](O)[C@@H](O[C@@H]2[C@@H](O)[C@H](O[C@H]3OC(CNCC(C)(C)CN)=CC[C@H]3N)[C@@H](N)C[C@H]2NC(=O)[C@@H](O)CN)OC[C@]1(C)O [Example 51, 6′-(2,2-Dimethyl-3-amino-propyl)-1-(3-amino-2(S)-hydroxy-propionyl)-sisomicin]	< 1 µg/mL	> 16 µg/mL
CN[C@@H]1[C@@H](O)[C@@H](O[C@@H]2[C@@H](O)[C@H](O[C@H]3OC(CNCC4CC4)=CC[C@H]3N)[C@@H](N)C[C@H]2NC(=O)[C@H](O)CCN)OC[C@]1(C)O [Example 5, 6′-(Methyl-cyclopropyl)-1-(4-amino-2(R)-hydroxy-butyryl)-sisomicin]	< 1 µg/mL	1 to 16 µg/mL (≈ 1.66 to 26.5 µM)
CN[C@@H]1[C@@H](O)[C@@H](O[C@@H]2[C@@H](O)[C@H](O[C@H]3OC(CNCC4(CN)CC4)=CC[C@H]3N)[C@@H](N)C[C@H]2NC(=O)C2(O)CCNC2)OC[C@]1(C)O (stereo partly drawn) [Example 79]	1 to 16 µg/mL (≈ 1.55 to 24.9 µM)	> 16 µg/mL
CN[C@@H]1[C@@H](O)[C@@H](O[C@@H]2[C@@H](O)[C@H](O[C@H]3OC(CNCC(O)CO)=CC[C@H]3N)[C@@H](N)C[C@H]2NC(=O)CO)OC[C@]1(C)O (stereo partly drawn) [Example 23, 6′-(2-Hydroxy-propanol)-1-(2-hydroxy-acetyl)-sisomicin]	> 16 µg/mL	> 16 µg/mL
CN[C@@H]1[C@@H](O)[C@@H](O[C@@H]2[C@@H](O)[C@H](O[C@H]3OC(CNCCCN)=CC[C@H]3N)[C@@H](N)C[C@H]2NC(=O)C2(O)CCNC2)OC[C@]1(C)O (stereo partly drawn) [Example 40]	1 to 16 µg/mL (≈ 1.62 to 25.9 µM)	1 to 16 µg/mL (≈ 1.62 to 25.9 µM)
CN[C@@H]1[C@@H](O)[C@@H](O[C@@H]2[C@@H](O)[C@H](O[C@H]3OC(CNCC4CCNCC4)=CC[C@H]3N)[C@@H](N)C[C@H]2NC(=O)[C@H](O)CCN)OC[C@]1(C)O [Example 4, 6′-(Methyl-piperidin-4-yl)-1-(4-amino-2(R)-hydroxy-butyryl)-sisomicin]	1 to 16 µg/mL (≈ 1.55 to 24.8 µM)	1 to 16 µg/mL (≈ 1.55 to 24.8 µM)
CN[C@@H]1[C@@H](O)[C@@H](O[C@@H]2[C@@H](O)[C@H](O[C@H]3OC(CNCCCN)=CC[C@H]3N)[C@@H](N)C[C@H]2NC(=O)CO)OC[C@]1(C)O [Example 24, 6′-(3-Amino-propyl)-1-(2-hydroxy-acetyl)-sisomicin]	1 to 16 µg/mL (≈ 1.78 to 28.4 µM)	1 to 16 µg/mL (≈ 1.78 to 28.4 µM)
CN[C@@H]1[C@@H](O)[C@@H](O[C@@H]2[C@@H](O)[C@H](O[C@H]3OC(CNCC(C)(C)N)=CC[C@H]3N)[C@@H](N)C[C@H]2NC(=O)[C@@H](O)CN)OC[C@]1(C)O [Example 55, 6′-(2-Methyl-2-amino-propyl)-1-(3-amino-2(S)-hydroxy-propionyl)-sisomicin]	1 to 16 µg/mL (≈ 1.65 to 26.4 µM)	> 16 µg/mL
CN[C@@H]1[C@@H](O)[C@@H](O[C@@H]2[C@@H](O)[C@H](O[C@H]3OC(CNCC(O)CCN)=CC[C@H]3N)[C@@H](N)C[C@H]2NC(=O)C2(O)CCNC2)OC[C@]1(C)O (stereo partly drawn) [Example 35]	< 1 µg/mL	1 to 16 µg/mL (≈ 1.54 to 24.7 µM)
CN[C@@H]1[C@@H](O)[C@@H](O[C@@H]2[C@@H](O)[C@H](O[C@H]3OC(CNCC(O)CO)=CC[C@H]3N)[C@@H](N)C[C@H]2NC(=O)[C@@H](O)CN)OC[C@]1(C)O (stereo partly drawn) [Example 14, 6′-(2-Hydroxy-propanol)-1-(3-amino-2(S)-hydroxy-propionyl)-sisomicin]	1 to 16 µg/mL (≈ 1.64 to 26.3 µM)	1 to 16 µg/mL (≈ 1.64 to 26.3 µM)
CN[C@@H]1[C@@H](O)[C@@H](O[C@@H]2[C@@H](O)[C@H](O[C@H]3OC(CNC[C@H]4C[C@@H](N)[C@@H](O)C4)=CC[C@H]3N)[C@@H](N)C[C@H]2NC(=O)[C@@H](O)CN)OC[C@]1(C)O [Example 69, 6′-(Methyl-1(R)-amino-2(S)-hydroxy-cyclopent-4(S)-yl)-1-(3-amino-2(S)-hydroxy-propionyl)-sisomicin]	< 1 µg/mL	1 to 16 µg/mL (≈ 1.54 to 24.7 µM)
CN[C@@H]1[C@@H](O)[C@@H](O[C@@H]2[C@@H](O)[C@H](O[C@H]3OC(CNCC4CC4)=CC[C@H]3N)[C@@H](N)C[C@H]2NC(=O)[C@H](O)CN)OC[C@]1(C)O [Example 7, 6′-Methyl-cyclopropyl-1-(3-amino-2(R)-hydroxy-propionyl)-sisomicin]	< 1 µg/mL	1 to 16 µg/mL (≈ 1.7 to 27.2 µM)
CN[C@@H]1[C@@H](O)[C@@H](O[C@@H]2[C@@H](O)[C@H](O[C@H]3OC(CN)=CC[C@H]3NCCO)[C@@H](N)C[C@H]2NC(=O)[C@@H](O)CCN)OC[C@]1(C)O [Example 98, 2′-(2-Hydroxy-ethyl)-1-(4-amino-2(S)-hydroxy-butyryl)-sisomicin]	1 to 16 µg/mL (≈ 1.69 to 27 µM)	1 to 16 µg/mL (≈ 1.69 to 27 µM)
CN[C@@H]1[C@@H](O)[C@@H](O[C@@H]2[C@@H](O)[C@H](O[C@H]3OC(CN)=CC[C@H]3NC(=O)C(O)CN)[C@@H](N)C[C@H]2NC(=O)[C@@H](O)CCN)OC[C@]1(C)O (stereo partly drawn) [Example 89, 2′-(3-Amino-2-hydroxy-propionyl)-1-(4-amino-2(S)-hydroxy-butyryl)-sisomicin]	< 1 µg/mL	1 to 16 µg/mL (≈ 1.57 to 25.2 µM)
CN[C@@H]1[C@@H](O)[C@@H](O[C@@H]2[C@@H](O)[C@H](O[C@H]3OC(CNCCC4(O)CNC4)=CC[C@H]3N)[C@@H](N)C[C@H]2NC(=O)[C@@H](O)CN)OC[C@]1(C)O [Example 70, 6′-(Ethyl-2-(3-hydroxy-azetidin-3-yl))-1-(3-amino-2(S)-hydroxy-propionyl)-sisomicin]	1 to 16 µg/mL (≈ 1.58 to 25.2 µM)	> 16 µg/mL
CN[C@@H]1[C@@H](O)[C@@H](O[C@@H]2[C@@H](O)[C@H](O[C@H]3OC(CNCCCN)=CC[C@H]3N)[C@@H](N)C[C@H]2NC(=O)[C@H](O)CCN)OC[C@]1(C)O [Example 6, 6′-(3-Amino-propyl)-1-(4-amino-2(R)-hydroxy-butyryl)-sisomicin]	1 to 16 µg/mL (≈ 1.65 to 26.4 µM)	1 to 16 µg/mL (≈ 1.65 to 26.4 µM)
CN[C@@H]1[C@@H](O)[C@@H](O[C@@H]2[C@@H](O)[C@H](O[C@H]3OC(CN)=CC[C@H]3NCC(C)(C)CN(C)C)[C@@H](N)C[C@H]2NC(=O)[C@@H](O)CCN)OC[C@]1(C)O [Example 94, 2′-(N,N-Dimethyl-2,2-dimethyl-3-amino-propyl)-1-(4-amino-2(S)-hydroxy-butyryl)-sisomicin]	1 to 16 µg/mL (≈ 1.51 to 24.2 µM)	> 16 µg/mL
CN[C@@H]1[C@@H](O)[C@@H](O[C@@H]2[C@@H](O)[C@H](O[C@H]3OC(CNCCO)=CC[C@H]3N)[C@@H](N)C[C@H]2NC(=O)C2(O)CNC2)OC[C@]1(C)O [Example 37]	< 1 µg/mL	1 to 16 µg/mL (≈ 1.69 to 27.1 µM)
CN[C@@H]1[C@@H](O)[C@@H](O[C@@H]2[C@@H](O)[C@H](O[C@H]3OC(CNCCO)=CC[C@H]3NC(=N)N)[C@@H](N)C[C@H]2N)OC[C@]1(C)O [Example 106, 6′-(2-Hydroxy-ethyl)-2′-guanidinium-sisomicin]	< 1 µg/mL	1 to 16 µg/mL (≈ 1.87 to 30 µM)
CN[C@@H]1[C@@H](O)[C@@H](O[C@@H]2[C@@H](O)[C@H](O[C@H]3OC(CNCC(O)CO)=CC[C@H]3N)[C@@H](N)C[C@H]2NS(=O)(=O)CCN)OC[C@]1(C)O (stereo partly drawn) [Example 27, 6′-(2-Hydroxy-propanol)-1-(2-amino-ethylsulfonamide)-sisomicin]	1 to 16 µg/mL (≈ 1.59 to 25.4 µM)	> 16 µg/mL
CN[C@@H]1[C@@H](O)[C@@H](O[C@@H]2[C@@H](O)[C@H](O[C@H]3OC(CNCC(O)CCN)=CC[C@H]3N)[C@@H](N)C[C@H]2NC(=O)C(O)C2CNC2)OC[C@]1(C)O (stereo partly drawn) [Example 77, 6′-(2-Hydroxy-4-amino-butyl)-1-(2-(azetidin-3-yl)-2-hydroxy-acetyl)-sisomicin]	1 to 16 µg/mL (≈ 1.54 to 24.7 µM)	1 to 16 µg/mL (≈ 1.54 to 24.7 µM)
CN[C@@H]1[C@@H](O)[C@@H](O[C@@H]2[C@@H](O)[C@H](O[C@H]3OC(CNCC4(CN)CC4)=CC[C@H]3N)[C@@H](N)C[C@H]2NC(=O)C(O)C2CNC2)OC[C@]1(C)O (stereo partly drawn) [Example 74, 6′-(Methyl-1-aminomethyl-cyclopropyl)-1-(2-(azetidin-3-yl)-2-hydroxy-acetyl)-sisomicin]	1 to 16 µg/mL (≈ 1.55 to 24.9 µM)	> 16 µg/mL
